The source of these data is US10919896B2, “Preparation and uses of pyrimidinone derivatives” (Cancer Research Technology Limited, priority 2016, dated 2021).

Structures can show the parent of a compound that is named as a salt.

Experiment [1] concerns the target Cdc7/ASK (Homo sapiens, UniProt O00311). Description: Cdc7 Biochemical Assay Method 1: 384 well ELISA, whole protein substrate MCM2, antibody against Phospho MCM2 (S53). On the set-up: purchased. The conditions noted are these: 2 μM ATP, read-out: Biochemical Method 1 (pIC50) (converted). In outline:
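MCM2 protein substrate was coated on nickel-chelate plates, then Cdc7/ASK was added with 2 μM ATP in 50 mM Tris-HCl pH 8.5, 10 mM MgCl2, 1 mM DTT, 4% DMSO, 90 min at room temperature. Phospho-MCM2 (S53) was detected by ELISA with an AP secondary and PNPP absorbance. IC50 was derived from % inhibition versus no-compound and no-enzyme controls.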
Background: ELISA stands for enzyme-linked immunosorbent assay.

The subject of experiment [2] is Cdc7 (pS53MCM2 levels in HCT116 cells). Nature of the experiment: Cdc7 Cell Pharmacodynamics Assay Method 1: pS53MCM2 levels in HCT116 cells, 6 hours. It counts as cell-based. The conditions noted are these: for EC50: Homo sapiens, HCT-116, 6 h, read-out: Biomarker Method 1 (pEC50) (converted). The text has this: This protocol describes a method to investigate the inhibition of Cdc7 activity of compounds by measuring pS53MCM2 levels in cells after treatment.
• HCT116 cells (wild type P53 positive) • McCoys 5A media (PAA Laboratories Ltd, E15-022) • 10% FCS (Sera Laboratories International Ltd, EU000F Batch:108005) • 100× L-Glutamine (Invitrogen, 25030-024) • D-PBS without CaCl2 and MgCl2 (Invitrogen, ref 14190-094) • Trypsin/EDTA (Invitrogen 25300-054) • 2% BSA in PBS • Cell Extraction Buffer (Invitrogen FNN0011) • Protease inhibitor cocktail (Sigma P-2714) • PMSF 0.3M stock in DMSO (Sigma P7626) • Antibody-rabbit pMCM2 Ser53 (Bethyl #A300-756A) • Antibody-goat MCM2 (Bethyl #A300-122A) • Antibody-goat Anti Rabbit IgG HRP (Perbio Science UK Ltd 31462) • 1×PBS • FACE Wash buffer (0.02% Triton X100 in 1×PBS) • SuperSignal ELISA Pico Chemiluminescent Substrate (Perbio Science UK Ltd 37070) Method • 72 hours prior to the start of the experiment plate 1×10^6 HCT 116 cells in a 150 cm^2 flask in complete McCoys 5A media (+10% FCS+1× L-glutamine). • Plate 20,000 HCT116 cells per well in standard TC treated 96 well plate in 100 μL complete McCoys 5A media. • Allow cells to settle overnight in incubator set at 37° C. and 5% CO2. • Remove intermediate plate from fridge and place at 37° C. overnight to allow to equilibrate. • Cell treatment: cell assay plate 100 μL; daughter to cell transfer volume 3.33 μL; daughter volume 45 μL; mother plate to daughter volume 5 μL. • Once all cells are treated remove the cells to the incubator and incubate for 6 hours. • Dilute the capture antibody (total MCM2#A300-122A) 1 in 250 in the required volume of PBS (5 mL per assay plate) and add 50 μL to each well of a Hybond plate excluding wells 12E to 12H. In these wells add 50 μL PBS. Seal the plate and incubate at room temperature for a minimum of 2 hours. • Defrost aliquot of Invitrogen Cell Extraction Buffer (FNN0011) on ice and supplement with appropriate volume of both Sigma protease inhibitor cocktail (P-2714) and PMSF (final conc 1 mM from a 1 M stock in DMSO). • After the 6 hour cell treatment time tap out the media from the assay plates and place them in the −70° C. freezer for at least 5 minutes. • Remove plates from freezer and add 20 μL of ice cold complete lysis buffer on ice. Incubate cells for 30 minutes at 4° C. • Add 80 μL per well 2% BSA. • Transfer 80 μL from the lysis plate to the same wells in the capture/ELISA plate. Cover with plate seal and incubate plates overnight at 4° C. • Wash plates with PBS, remove any residual remaining liquid and add 50 μL per well of pMCM2 Ser53 antibody (#A300-756A) diluted 1 in 100 in 2% BSA. Cover plate and incubate at room temperature for 2 hours with gentle shaking. • Wash plates with PBS, remove any residual remaining liquid and Incubate with 50 μL goat anti rabbit antibody (1 in 800 dilution in 2% BSA) for 1 hour at room temperature. • Wash plates with PBS, remove any residual remaining liquid and add 50 μL mixed SuperSignal Pico substrate. • Incubate each plate for 5 minutes at room temperature shielding the plates from direct light (with a cover plate). Read plates with the luminescent detection. Method 2A and 2B

Chain of Cdc7/ASK (O00311 whole entry): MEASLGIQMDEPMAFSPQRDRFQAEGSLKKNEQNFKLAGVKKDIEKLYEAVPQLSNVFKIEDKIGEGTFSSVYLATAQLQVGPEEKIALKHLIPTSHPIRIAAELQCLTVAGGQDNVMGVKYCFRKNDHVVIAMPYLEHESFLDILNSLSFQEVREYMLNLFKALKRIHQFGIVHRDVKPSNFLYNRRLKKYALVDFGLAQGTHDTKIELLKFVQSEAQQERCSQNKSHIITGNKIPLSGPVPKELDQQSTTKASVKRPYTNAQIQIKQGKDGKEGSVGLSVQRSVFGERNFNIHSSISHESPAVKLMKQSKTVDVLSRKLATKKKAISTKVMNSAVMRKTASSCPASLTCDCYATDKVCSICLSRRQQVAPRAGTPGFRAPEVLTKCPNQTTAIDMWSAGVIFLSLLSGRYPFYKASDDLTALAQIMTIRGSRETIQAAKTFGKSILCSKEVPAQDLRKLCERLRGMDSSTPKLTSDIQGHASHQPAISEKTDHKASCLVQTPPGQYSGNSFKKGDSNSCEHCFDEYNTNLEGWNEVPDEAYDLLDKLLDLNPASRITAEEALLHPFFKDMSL
Chain of Cdc7/ASK (Q9UBU7 whole entry partner): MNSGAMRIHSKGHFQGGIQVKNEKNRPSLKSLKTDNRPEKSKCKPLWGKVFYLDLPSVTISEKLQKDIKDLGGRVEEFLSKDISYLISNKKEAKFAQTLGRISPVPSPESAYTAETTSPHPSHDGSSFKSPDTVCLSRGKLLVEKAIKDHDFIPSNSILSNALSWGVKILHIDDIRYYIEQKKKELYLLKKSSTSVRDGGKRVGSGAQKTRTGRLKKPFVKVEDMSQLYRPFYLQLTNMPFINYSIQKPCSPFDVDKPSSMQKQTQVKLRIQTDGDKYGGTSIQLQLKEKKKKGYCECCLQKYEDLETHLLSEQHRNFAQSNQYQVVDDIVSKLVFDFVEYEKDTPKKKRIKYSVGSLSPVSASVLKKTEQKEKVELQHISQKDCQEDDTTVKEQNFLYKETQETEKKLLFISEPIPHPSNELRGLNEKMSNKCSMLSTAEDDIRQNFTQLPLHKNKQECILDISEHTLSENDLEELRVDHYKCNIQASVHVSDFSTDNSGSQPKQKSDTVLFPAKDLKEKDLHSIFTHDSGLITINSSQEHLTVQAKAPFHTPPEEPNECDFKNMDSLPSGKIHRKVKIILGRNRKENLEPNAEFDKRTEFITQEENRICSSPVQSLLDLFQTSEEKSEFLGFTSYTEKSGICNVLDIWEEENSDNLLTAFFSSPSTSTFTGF

Take `C[C@@H]1CN(c2nc(-c3ccncc3)[nH]c(=O)c2Cl)CCN1` [Compound 140]: the IC50 in experiment [1] was 6.03 nM. Further, in experiment [2], the EC50 is 457 nM.
For `O=c1[nH]c(-c2ccncc2)nc(N2CCCN(CC(F)(F)F)CC2)c1Cl` [Compound 142], in that order: 15.5 nM and 661 nM.
With `CCCN1CCCN(c2nc(-c3ccncc3)[nH]c(=O)c2Cl)CC1` [Compound 143], the IC50 in experiment [1] is 21.4 nM. The EC50 in experiment [2] is 407 nM.
On to `O=C(N1CCCN(c2nc(-c3ccncc3)[nH]c(=O)c2Cl)CC1)C(F)(F)F` [Compound 144], for which, in experiment [1], the IC50 was 9.33 nM. Further, the EC50 in experiment [2] is 589 nM.
The matching figures for `CS(=O)(=O)N1CCCN(c2nc(-c3ccncc3)[nH]c(=O)c2Cl)CC1` [Compound 145]: 2.51 nM and 269 nM.
Take `O=c1[nH]c(-c2ccncc2)nc(N2CCN(CC(F)(F)F)CC2)c1Cl` [Compound 146]: the IC50 in experiment [1] was 7.24 nM. For the same molecule, the EC50 in experiment [2] is 229 nM.
As for `C#CCN1CCN(c2nc(-c3ccncc3)[nH]c(=O)c2Cl)CC1` [Compound 150], the IC50 in experiment [1] is 14.1 nM. In addition, the EC50 in experiment [2] was 427 nM.
Turning to `O=c1[nH]c(-c2ccncc2)nc(N2CCC3(CC2)COC3)c1Cl` [Compound 151], the IC50 in experiment [1] is 34.7 nM. Further, the EC50 in experiment [2] was 501 nM.
Turning to `O=c1[nH]c(-c2ccncc2)nc(N2CCN(CC(F)(F)C(F)F)CC2)c1Cl` [Compound 152], in experiment [1], the IC50 is 19.5 nM. The EC50 in experiment [2] was 871 nM.
For `N#CC1CCN(c2nc(-c3ccncc3)[nH]c(=O)c2Cl)CC1` [Compound 153], in that order: 1.78 nM and 126 nM.
The matching figures for `O=c1[nH]c(-c2ccncc2)nc(N2C3CCCC2COC3)c1Cl` [Compound 154]: 2.45 nM and 63.1 nM.
The matching figures for `CC(F)(F)C1CN(c2nc(-c3ccncc3)[nH]c(=O)c2Cl)CCN1` (centres unmarked) [Compound 156]: 3.98 nM and 66.1 nM.
Turning to `CC(C)(C)[C@H]1CN(c2nc(-c3ccncc3)[nH]c(=O)c2Cl)CCN1` [Compound 157], the IC50 in experiment [1] is 2.95 nM. Moreover, in experiment [2], the EC50 is 79.4 nM.
`O=c1[nH]c(-c2ccncc2)nc(N2CCNC3(CCC3)C2)c1Cl` [Compound 158]: in experiment [1], the IC50 was 19.5 nM. In addition, the EC50 in experiment [2] was 1740 nM.
The matching figures for `O=c1[nH]c(-c2ccncc2)nc(N2CCOC(C(F)(F)F)C2)c1Cl` (centres unmarked) [Compound 159]: 6.61 nM and 209 nM.
Regarding `CC(C)(C)[C@H]1CN(c2nc(-c3ccnc(F)c3)[nH]c(=O)c2Cl)CCN1.Cl` [Compound 160], in experiment [1], the IC50 was 1.62 nM. For the same molecule, the “Biomarker Method 1 (pEC50)” value in experiment [2] is recorded as 7.50.
With `O=c1[nH]c(-c2ccncc2)nc(N2CCN[C@@H](Cc3ccccc3)C2)c1Cl` [Compound 164], in experiment [1], the IC50 was 20.9 nM. Further, in experiment [2], the EC50 was 724 nM.
For the molecule `C[C@@H]1CN(c2nc(-c3ccncc3)[nH]c(=O)c2Cl)[C@H](C)CN1` [Compound 166], in experiment [1], the IC50 was 35.5 nM. For the same molecule, the EC50 in experiment [2] was 2820 nM.
With `O=c1[nH]c(-c2ccncc2)nc(N2CCCC(O)C2)c1Cl` (centres unmarked) [Compound 167], in experiment [1], the IC50 was 8.13 nM. For the same molecule, in experiment [2], the EC50 was 832 nM.
In the case of `COc1ccc(C2CN(c3nc(-c4ccncc4)[nH]c(=O)c3Cl)CCN2)cc1` (centres unmarked) [Compound 169], the IC50 in experiment [1] is 30.2 nM. In experiment [2], the EC50 was 562 nM.
The matching figures for `C[C@H]1CN(c2nc(-c3ccnc(F)c3)[nH]c(=O)c2Cl)CCN1` [Compound 171]: 1.17 nM and 72.4 nM.
For the molecule `O=c1[nH]c(-c2ccncc2)nc(N2CCCC(C(F)(F)F)C2)c1Cl` (centres unmarked) [Compound 176], the IC50 in experiment [1] was 20.9 nM. Also, the “Biomarker Method 1 (pEC50)” value in experiment [2] was 5.56.
Regarding `O=c1[nH]c(-c2ccncc2)nc(N2CCNC(c3cccs3)C2)c1Cl` (centres unmarked) [Compound 177], the IC50 in experiment [1] is 5.13 nM. The EC50 in experiment [2] is 214 nM.
The matching figures for `C[C@H]1CN(c2nc(-c3ccncc3)[nH]c(=O)c2Cl)CCN1CC(F)(F)F` [Compound 181, 5-chloro-4-[(3S)-3-methyl-4-(2,2,2-trifluoroethyl)piperazin-1-yl]-2-(4-pyridyl)-1H-pyrimidin-6-one]: 2.4 nM and 132 nM.
For `CC(C)[C@H]1CN(c2nc(-c3ccncc3)[nH]c(=O)c2Cl)CCN1` [Compound 309], the IC50 in experiment [1] is 2 nM. Moreover, the EC50 in experiment [2] is 61.7 nM.
For `CC(C)C1CN(c2nc(-c3ccnc(F)c3)[nH]c(=O)c2Cl)CCN1` (centres unmarked) [Compound 310], in that order: 3.47 nM and 58.9 nM.
The matching figures for `CC1(C)CN(c2nc(-c3ccncc3)[nH]c(=O)c2Cl)CCN1` [Compound 361]: 2.34 nM and 2400 nM.
On to `O=c1[nH]c(-c2ccncc2)nc(N2CCNCC2)c1Cl` [Compound 416, 5-chloro-4-piperazin-1-yl-2-(4-pyridyl)-1H-pyrimidin-6-one hydrochloride], for which, in experiment [1], the IC50 was 1.95 nM. The EC50 in experiment [2] was 110 nM.
